Measurements: patent US4450269A, “Mono-5-substituted-3-chloro-4H-1,2,6-thiadiazin-4-one antifungal agents” (FMC Corporation, priority 1980, dated 1984)

Legend:
Assay in all cases: Spore germination test
Type in all cases: cell-based
[1] = system: Botrytis cinerea; settings: BC, 48 hours
Summary of the method: (§1)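 Compound in acetone was mixed into water agar at final 40, 10, 2.5 and 1 ppm and poured into quadrant dishes. Quadrants received spore suspension, while Erysiphe polygoni and Uromyces phaseoli spores were brushed on from infected leaves. After 48 h at 24 °C, the percentage of germinated spores was converted to a germination rating.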

[2] = system: Uromyces phaseoli; settings: UP, 48 hours
Summary of the method: as §1

[3] = system: Erysiphe polygoni; settings: EP, 48 hours
Summary of the method: as §1

| SMILES | Spore Germination Rating ([1]; 1.0 ppm) | Spore Germination Rating ([1]; 2.5 ppm) | Spore Germination Rating ([1]; 10 ppm) | Spore Germination Rating ([1]; 40 ppm) | Spore Germination Rating ([2]; 1.0 ppm) | Spore Germination Rating ([2]; 2.5 ppm) | Spore Germination Rating ([2]; 10 ppm) | Spore Germination Rating ([2]; 40 ppm) | Spore Germination Rating ([3]; 1.0 ppm) | Spore Germination Rating ([3]; 2.5 ppm) | Spore Germination Rating ([3]; 10 ppm) | Spore Germination Rating ([3]; 40 ppm) |
| --- | --- | --- | --- | --- | --- | --- | --- | --- | --- | --- | --- | --- |
| O=C(O)Cc1ccccc1Oc1nsnc(Cl)c1=O [Compound 45, 3-(2-carboxymethylphenoxy)-5-chloro-4H--1,2,6-thiadiazin-4-one] | 4 (80-100) | 4 (80-100) | 4 (80-100) | 2 (40-60) | 4 (80-100) | 4 (80-100) | 4 (80-100) | 2 (40-60) | 4 (80-100) | 4 (80-100) | 4 (80-100) | 2 (40-60) |
| Cc1ccccc1Oc1nsnc(Cl)c1=O [Compound 22, 3-chloro-5-(2-methylphenoxy)-4H--1,2,6-thiadiazin-4-one] | 2 (40-60) | 0 (0-10) | 0 (0-10) | 0 (0-10) | 4 (80-100) | 2 (40-60) | 1 (10-40) | 0 (0-10) | 4 (80-100) | 4 (80-100) | 3 (60-80) | 1 (10-40) |
| O=C(Nc1ccccc1)Nc1ccc(Oc2nsnc(Cl)c2=O)cc1 [Compound 29, 3-chloro-5-[4-(3-phenylureido)-phenoxy]-4H--1,2,6-thiadiazin-4-one] | 3 (60-80) | 3 (60-80) | 2 (40-60) | 2 (40-60) | 4 (80-100) | 2 (40-60) | 2 (40-60) | 0 (0-10) | 4 (80-100) | 4 (80-100) | 4 (80-100) | 1 (10-40) |
| CCCCOc1ccc(Oc2nsnc(Cl)c2=O)cc1 [Compound 6, 3-chloro-5-(4-n-butoxyphenoxy)-4H--1,2,6-thiadiazin-4-one] | 4 (80-100) | 4 (80-100) | 4 (80-100) | 4 (80-100) | 1 (10-40) | 0 (0-10) | 0 (0-10) | 0 (0-10) | 0 (0-10) | 0 (0-10) | 0 (0-10) | 0 (0-10) |
| Cc1ccc(Oc2nsnc(Cl)c2=O)c(C)c1 [Compound 23, 3-chloro-5-(2,4-dimethylphenoxy)-4H--1,2,6-thiadiazin-4-one] | 4 (80-100) | 4 (80-100) | 4 (80-100) | 0 (0-10) | 4 (80-100) | 4 (80-100) | 1 (10-40) | 0 (0-10) | 4 (80-100) | 4 (80-100) | 3 (60-80) | 1 (10-40) |
| O=c1c(Cl)nsnc1Oc1ccc([N+](=O)[O-])cc1Cl [Compound 53, 3-chloro-5-(2-chloro-4-nitrophenoxy)-4H--1,2,6-thiadiazin-4-one] | 3 (60-80) | 0 (0-10) | 0 (0-10) | 0 (0-10) | 1 (10-40) | 0 (0-10) | 0 (0-10) | 0 (0-10) | 2 (40-60) | 1 (10-40) | 0 (0-10) | 0 (0-10) |
| CC(=O)Nc1cccc(Oc2nsnc(Cl)c2=O)c1 [Compound 42, 3-[(3-N--acetylamino)-phenoxy]-5-chloro-4H--1,2,6-thiadiazin-4-one] | 4 (80-100) | 4 (80-100) | 4 (80-100) | 1 (10-40) | 4 (80-100) | 3 (60-80) | 1 (10-40) | 0 (0-10) | 4 (80-100) | 4 (80-100) | 4 (80-100) | 4 (80-100) |
| COc1ccc(Oc2nsnc(Cl)c2=O)cc1 [Compound 5, 3-chloro-5-(4-methoxyphenoxy)4H--1,2,6-thiadiazin-4-one] | 4 (80-100) | 4 (80-100) | 1 (10-40) | 0 (0-10) | 1 (10-40) | 1 (10-40) | 0 (0-10) | 0 (0-10) | 4 (80-100) | 4 (80-100) | 4 (80-100) | 0 (0-10) |
| O=c1c(Cl)nsnc1Oc1ccccc1Cl [Compound 14, 3-chloro-5-(2-chlorophenoxy)-4H--1,2,6-thiadiazin-4-one] | 3 (60-80) | 0 (0-10) | 0 (0-10) | 0 (0-10) | 0 (0-10) | 0 (0-10) | 0 (0-10) | 0 (0-10) | 4 (80-100) | 4 (80-100) | 2 (40-60) | 0 (0-10) |
| O=c1c(Cl)nsnc1Oc1ccccc1 [Compound 2, 3-chloro-5-phenoxy-4H--1,2,6-thiadiazin-4-one] | 4 (80-100) | 4 (80-100) | 0 (0-10) | 0 (0-10) | 2 (40-60) | 2 (40-60) | 0 (0-10) | 0 (0-10) | 4 (80-100) | 4 (80-100) | 3 (60-80) | 1 (10-40) |
| CS(=O)(=O)c1ccc(Oc2nsnc(Cl)c2=O)cc1 [Compound 41, 3-chloro-5-[(4-methylsulfonyl)phenoxy]-4H--1,2,6-thiadiazin-4-one] | 0 (0-10) | 0 (0-10) | 4 (80-100) | 3 (60-80) | 4 (80-100) | 1 (10-40) | 0 (0-10) | 0 (0-10) | 2 (40-60) | 2 (40-60) | 1 (10-40) | 0 (0-10) |
| O=C(OCc1ccccc1)Oc1ccc(Oc2nsnc(Cl)c2=O)cc1 [Compound 38, 3-chloro-5-[4-(phenylmethoxycarbonyloxy)phenoxyl]-4H-1,2,6-thiadiazin-4-one] | 4 (80-100) | 4 (80-100) | 4 (80-100) | 3 (60-80) | 4 (80-100) | 4 (80-100) | 3 (60-80) | 2 (40-60) | 4 (80-100) | 4 (80-100) | 4 (80-100) | 4 (80-100) |
| Cc1cccc(C)c1Oc1nsnc(Cl)c1=O [Compound 24, 3-chloro-5-(2,6-dimethylphenoxy)-4H--1,2,6-thiadiazin-4-one] | 3 (60-80) | 1 (10-40) | 0 (0-10) | 0 (0-10) | 1 (10-40) | 0 (0-10) | 0 (0-10) | 0 (0-10) | 3 (60-80) | 1 (10-40) | 0 (0-10) | 0 (0-10) |
| O=c1c(Cl)nsnc1Oc1ccc(Br)cc1 [Compound 15, 3-chloro-5-(4-bromophenoxy)-4H--1,2,6-thiadiazin-4-one] | 4 (80-100) | 1 (10-40) | 0 (0-10) | 0 (0-10) | 1 (10-40) | 0 (0-10) | 0 (0-10) | 0 (0-10) | 4 (80-100) | 1 (10-40) | 0 (0-10) | 0 (0-10) |
| O=c1c(Cl)nsnc1Oc1ccccc1Br [Compound 34, 3-chloro-5-(2-bromophenoxy)-4H-1,2,6,-thiadiazin-4-one] | 2 (40-60) | 0 (0-10) | 0 (0-10) | 0 (0-10) | 0 (0-10) | 0 (0-10) | 0 (0-10) | 0 (0-10) | 0 (0-10) | 2 (40-60) | 0 (0-10) | 0 (0-10) |
| Cc1cc(C)cc(Oc2nsnc(Cl)c2=O)c1 [Compound 25, 3-chloro-5-(3,5-dimethylphenoxy)-4H--1,2,6-thiadiazin-4-one] | 2 (40-60) | 1 (10-40) | 0 (0-10) | 0 (0-10) | 4 (80-100) | 2 (40-60) | 1 (10-40) | 0 (0-10) | 4 (80-100) | 4 (80-100) | 0 (0-10) | 0 (0-10) |
| CCOC(=O)c1ccc(Oc2nsnc(Cl)c2=O)cc1 [Compound 7, 3-chloro-5-(4-ethoxycarbonylphenoxy)-4H--1,2,6-thiadiazin-4-one] | 4 (80-100) | 3 (60-80) | 2 (40-60) | 3 (60-80) | 0 (0-10) | 0 (0-10) | 0 (0-10) | 0 (0-10) | 4 (80-100) | 3 (60-80) | 2 (40-60) | 0 (0-10) |
| Cc1cccc(Oc2nsnc(Cl)c2=O)c1 [Compound 21, 3-chloro-5-(3-methylphenoxy)-4H--1,2,6-thiadiazin-4-one] | 4 (80-100) | 3 (60-80) | 0 (0-10) | 0 (0-10) | 4 (80-100) | 2 (40-60) | 0 (0-10) | 0 (0-10) | 4 (80-100) | 3 (60-80) | 2 (40-60) | 0 (0-10) |
